Converted amounts (≈) assume the structure as drawn.
What was measured:
[1] = Lipophilicity, log D of the compound; format: physicochemical; settings: octanol/water
[2] = Intrinsic clearance in rat hepatocytes assessed per million cells; format: ADME, cell-based, Hepatocyte; settings: read-out: CLH
[3] = Solubility of the compound; format: physicochemical
in vitro [4] = settings: human, Caco-2
in vitro [5] = settings: human, liver microsomes
[6] = Clearance in iv dosed rat; format: ADME, organism-based; settings: in vivo
[7] = Half life in iv dosed rat; format: ADME, organism-based; settings: in vivo
[8] = Volume of distribution at steady state in iv dosed rat; format: ADME, organism-based; settings: in vivo, read-out: Vdss
[9] = Oral bioavailability in rat; format: ADME, organism-based; settings: in vivo

## Cn1nc(-c2cnc(N)c(-c3cnn(C(N)=O)c3)n2)nc1C1(c2ccccc2)CC1
[1]
  logD: 2.2

## Cn1nc(-c2cnc(N)c(-n3nnc4ccccc43)n2)nc1C1(c2ccccc2)CC1
[1]
  logD: 4.3

## Cn1nc(-c2cnc(N)c(-c3cc[nH]n3)n2)nc1C1(c2ccccc2)CC1
[1]
  logD: 3

## Cn1nc(-c2cnc(N)c(-n3ccc(C(N)=O)n3)n2)nc1C1(c2ccccc2)CC1
[1]
  logD: 2.8

## Cn1nc(-c2cnc(N)c(-c3ccc(F)nc3)n2)nc1C1(c2ccccc2)CC1
[1]
  logD: 2.5

## Cn1nc(-c2cnc(N)c(-c3ccc(N)nc3)n2)nc1C1(c2ccccc2)CC1
[1]
  logD: 2

## CN(C)S(=O)(=O)n1cc(-c2nc(-c3nc(C4(c5ccccc5)CC4)n(C)n3)cnc2N)cn1
[2]
  hepatocyte CLint: 157 µL/min/1e6 cells
[1]
  logD: 2.8
[3]
  solubility: 11 µM (≈ 5.12 µg/mL)
In vitro [4]
  Papp A→B: 19 ×10⁻⁶ cm/s
In vitro [5]
  microsomal CLint: 191 µL/min/mg

## Cn1nc(-c2cnc(N)cn2)nc1C1(c2ccccc2)CC1
[1]
  logD: 1.8

## Cc1n[nH]c(C)c1-c1nc(-c2nc(C3(c4ccccc4)CC3)n(C)n2)cnc1N
[1]
  logD: 2.3

## Cn1nc(-c2cnc(N)c(-c3nnc(C(C)(C)C)o3)n2)nc1C1(c2ccccc2)CC1
[2]
  hepatocyte CLint: 12 µL/min/1e6 cells
[1]
  logD: 3.6
[3]
  solubility: 3 µM (≈ 1.25 µg/mL)
In vitro [4]
  Papp A→B: 24 ×10⁻⁶ cm/s
In vitro [5]
  microsomal CLint: 20 µL/min/mg

## Cn1nc(-c2cnc(N)c(-c3cn[nH]c3)n2)nc1C1(c2ccccc2)CC1
[2]
  hepatocyte CLint: 5 µL/min/1e6 cells
[1]
  logD: 2.1
[3]
  solubility: 37 µM (≈ 13.3 µg/mL)
In vitro [4]
  Papp A→B: 6.6 ×10⁻⁶ cm/s
In vitro [5]
  microsomal CLint: < 3 µL/min/mg

## Cn1nc(-c2cnc(N)c(-c3ccc(C(N)=O)cc3)n2)nc1C1(c2ccccc2)CC1
[2]
  hepatocyte CLint: 2 µL/min/1e6 cells
[1]
  logD: 2.2
[3]
  solubility: 177 µM (≈ 72.8 µg/mL)
In vitro [4]
  Papp A→B: 2 ×10⁻⁶ cm/s
In vitro [5]
  microsomal CLint: < 3 µL/min/mg

## Cn1nc(-c2cnc(N)c(C#N)n2)nc1C1(c2ccccc2)CC1
[1]
  logD: 2.2

## Cn1nc(-c2cnc(N)c(-n3cc(C(N)=O)cn3)n2)nc1C1(c2ccccc2)CC1
[1]
  logD: 2.8

## Cn1nc(-c2cnc(N)c(-c3ccc(C(N)=O)c(F)c3)n2)nc1C1(c2ccccc2)CC1
[6]
  clearance: 12 mL/min/kg
[2]
  hepatocyte CLint: < 1 µL/min/1e6 cells
[1]
  logD: 2.2
[3]
  solubility: 32 µM (≈ 13.7 µg/mL)
In vitro [4]
  Papp A→B: 13 ×10⁻⁶ cm/s
[7]
  half-life: 3.4 h
[8]
  Vd: 2.8 L/kg
[9]
  bioavailability: 41%
In vitro [5]
  microsomal CLint: < 3 µL/min/mg

Reference: ChEMBL document CHEMBL4000207 (Bioorg Med Chem Lett, 2017)
